Test results reported in patent US11739122B2, “Glycopeptide antibiotic compounds, methods for producing the same, and uses thereof” (Academia Sinica, priority 2019, dated 2023).
pKd: −log10 of the molar value. In brackets after ≈: the same amount, converted by molar mass.

Columns and labels:
A. baumannii ATCC 19606 [1] = test: MIC, broth microdilution; format: cell-based, Acinetobacter baumannii; conditions: for MIC on AB: A. baumannii ATCC 19606
Procedure: (§1) Determination of Minimal Inhibitory Concentration (MIC) for Vancomycin, Teicoplanin and Tei-Analogs Versus Selected Strains
(§2) MICs were determined by the broth microdilution method. Specifically, 12 Colonies of the test strain were picked up from 18-24 hour agar cultures and freshly inoculated into broth mediums until reaching the turbidity of a 0.5 McFarland standard. The broth culture was adjusted with broth medium to approximately 1×10^8 CFUmL^−1. […] The plates were incubated in 37° C. for 18-24 hours and monitored for the wells of the positive control, where cells grew, and the wells of the negative control, where wells should not grow. The MIC value was determined for the concentration of a test compound, at which there was no visible growth in the well.

A. baumannii ATCC 19606 [2] = test: Thin-section TEM, cell wall morphology; format: cell-based, Acinetobacter baumannii; conditions: AB ATCC 19606; 24 50 μM, colistin 3.2 μM, combination 25 μM each
MRSA ATCC 43300 = test: MIC, broth microdilution; format: cell-based, Staphylococcus aureus; conditions: MRSA ATCC 43300
Procedure: as §1, §2

MRSA ATCC 700698 hVISA = test: MIC, broth microdilution; format: cell-based, Staphylococcus aureus; conditions: MRSA ATCC 700698 hVISA
Procedure: as §1, §2

MRSA ATCC 700787 VRSA = test: MIC, broth microdilution; format: cell-based, Staphylococcus aureus
Procedure: as §1, §2

MRSA ATCC 700789 VRSA = test: MIC, broth microdilution; format: cell-based, Staphylococcus aureus; conditions: MRSA ATCC 700789 VRSA
Procedure: as §1, §2

MRSA ATCC BAA-38 = test: MIC, broth microdilution; format: cell-based, Staphylococcus aureus; conditions: MRSA ATCC BAA-38
Procedure: as §1, §2

MRSA ATCC BAA-39 = test: MIC, broth microdilution; format: cell-based, Staphylococcus aureus; conditions: MRSA ATCC BAA-39
Procedure: as §1, §2

MRSA ATCC BAA-44 = test: MIC, broth microdilution; format: cell-based, Staphylococcus aureus; conditions: MRSA ATCC BAA-44
Procedure: as §1, §2

S. aureus ATCC 29213 = test: MIC, broth microdilution; format: cell-based, Staphylococcus aureus; conditions: SA ATCC 29213
Procedure: as §1, §2

E. faecalis ATCC 29302 = test: MIC, broth microdilution; format: cell-based; conditions: EF ATCC 29302
Procedure: as §1, §2

VRE ATCC 700221 (vanA) = test: MIC, broth microdilution; format: cell-based, enterococci; conditions: VRE ATCC 700221 (vanA)
Procedure: as §1, §2

VRE ATCC 700425 (vanC) = test: MIC, broth microdilution; format: cell-based, enterococci; conditions: VRE ATCC 700425 (vanC)
Procedure: as §1, §2

VRE ATCC 700802 (vanB) = test: MIC, broth microdilution; format: cell-based, enterococci; conditions: VRE ATCC 700802 (vanB)
Procedure: as §1, §2

MRSA ATCC 700787 [3] = test: Thin-section TEM, cell wall morphology; format: cell-based, Staphylococcus aureus
Procedure: Thin-Section Transmission Electron Microscopy (TEM)
An overnight cultured MRSA ATCC 700787, VRE ATCC 700221 or A. baumannii ATCC 19606 was individually sub-cultured into a fresh medium. Bacteria at the exponential phase were treated with a given test compound at a concentration of 4×MIC for 1-4 hour at 37° C. and followed by wash and resuspension in PBS. Bacteria cells for the TEM analysis were prepared as follows: Cells were fixed with 2.5% glutaraldehyde for 30 minutes. After the fixation, cells were washed twice with PBS and fixed with 1% osmium tetraoxide for another 30 minutes. All the buffer was removed with distilled water. The cells were then stained with 1% uranyl acetate and dehydrated with a graded ethanol solution. Cells were embedded in resin. Finally, each sample was cut into thin slices of approximately 90 nm with a glass knife and stained with uranyl acetate. The images of bacterial morphological were recorded.
The cell wall/membrane apparently is the targets, while the extent of damage depends on what compound imposes on the strain. […] Cell wall thickening has been a common phenotype in clinical MRSA isolates, which may well be a phenotypic determinant for VRSA. The systemic cell-wall damage may account for the cell-wall biosynthesis crippled all over the cell surface in cell-wall thickening strains, thus leading cells to lysis as a result of the osmotic pressure of cytoplasm.

HEK293T cells = test: Alamar Blue cell viability assay; format: cell-based, human; conditions: up to 100 μgmL^−1; 2 and 24 h
Procedure: The Alamar Blue (AB) assay, which includes a redox indicator that changes color or emits fluorescence in response to a metabolic activity, was used to assess in vitro mammalian cell cytotoxicity (human embryonic kidney cells (HEK293T)) upon an antibiotic treatment. 2×10^5 cellsmL^−1 were allowed to adhere on 96-well plates overnight at 37° C. in a humidified incubator (5% CO2 atmosphere). Tested compounds were dissolved in 50% DMSO to make 1 mgmL^−1 of a stock solution. Cells were separately aliquoted with 5 μL of a test compound (final concentration: 100 μgmL^−1) and incubated. PBS and 50% DMSO, which was used to dissolve compounds, served as a control. Cell viability was triplicated and assessed at 2 and 24 hour time points for each test compound, on which the measurements followed the manufacturer protocol.

MRSA ATCC 700787 [4] = test: In vivo efficacy, intraperitoneal MRSA infection; parameters: species or system mice; conditions: peritoneal fluid, 24 hours post-inoculation, single dose 20 mgkg^−1 IP
Procedure: (§3) In Vivo Efficacy of r6,N-Acyl-Glc Tei Analogs
(§4) Female C57BL/6 mice (6 weeks of age; about 16-19 g, 3-5 mice per group) were intraperitoneally inoculated with 300 μL of MRSA ATCC 700787 suspension (about 10^7 CFUmL^−1). For intranasal A. baumannii (ATCC 19606) inoculation, mice were anesthetized, and inoculated intranasally with about 10^7-10^8 CFUmL^−1 A. baumannii in 50 μL of PBS. Treatments were started 1 hour after the bacterial challenge. The dose administration to mice was set as follows: teicoplanin (1) or r6,C8-Tei analog (14) 20 mgkg^−1 was intraperitoneally injected to MRSA-infected mice; amikacin (15 mgkg^−1), teicoplanin (1) (30 mgkg^−1), kanamycin (30 mgkg^−1) or r1,Me2-r6,guanidino-C8 analog (24) (30 mgkg^−1) was intraperitoneally injected to AB-infected mice. To assess bacteraemia, the test animals were sacrificed to collect 1 mL of peritoneal fluid (PF) for MRSA counting or the lungs were lavaged to collect 0.6 mL bronchoalveolar lavage (BAL) fluid for A. baumannii counting.
For MRSA, mice were inoculated intraperitoneally (IP) with 0.3 mL of MRSA ATCC 700787 suspension (about 10^7 CFUmL^−1). […] For the saline treated control, bacterial count was calculated (about 7.5 log CFUmL^−1, FIG. 4A). […]

A. baumannii ATCC 19606 [5] = test: In vivo efficacy, intranasal A. baumannii infection; parameters: species or system mice; conditions: BAL fluid, 24 hours post-inoculation
Procedure: as §3, §4
For AB (ATCC 19606), female C57BL/6 mice were first anesthetized by intraperitoneal injection of zoletil and then intranasally inoculated with 50 μL of bacteria in a PBS solution (about 10^7-10^8 CFUmL^−1). The treatment started 1 hour post-infection with a single dose of compound 24 (30 mgkg^−1), compound 1 (30 mgkg^−1), amikacin (15 mgkg^−1), or kanamycin (30 mgkg^−1), where saline/compound 1 and amikacin/kanamycin respectively served as negative and positive controls. To assess the density of bacteraemia, the lungs of mice were lavaged to collect 0.6 mL bronchoalveolar lavage (BAL) fluid from each mouse at 24 hours post-inoculation. For saline/compound 1 treated controls, the bacterial load was counted (about 4 log CFUmL^−1, FIG. 4B), where the bacterial load was reduced by 0.5 or 1 log CFUmL^−1 with the treatment of amikacin/kanamycin or compound 24, respectively.

Dbv27 = Dbv27 (Nonomuraea gerenzanensis, UniProt Q7WZ64); test: ITC binding affinity; conditions: ITC versus Dbv27
Dbv27, sequence (Q7WZ64 entry or part of it): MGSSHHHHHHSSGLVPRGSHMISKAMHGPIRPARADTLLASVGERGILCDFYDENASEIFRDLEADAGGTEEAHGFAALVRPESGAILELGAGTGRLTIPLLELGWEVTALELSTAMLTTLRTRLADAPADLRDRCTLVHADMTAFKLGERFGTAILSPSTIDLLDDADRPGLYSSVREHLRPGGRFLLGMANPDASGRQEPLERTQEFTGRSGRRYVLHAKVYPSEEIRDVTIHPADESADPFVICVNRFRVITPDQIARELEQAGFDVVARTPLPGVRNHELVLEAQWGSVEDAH
Procedure: Isothermal Titration Calormetry (ITC) Analysis
A stock solution (50 mM) was prepared by dissolving r6,GlcNAc pseudoaglycone (9) in 50% DMSO. The 1 mM protein solutions of Orf2*, Orf2*T and Dbv27 were prepared in a 50 mM HEPES buffer solution at pH 8.0. The solution (50 mM HEPES, pH8.0 and 10% DMSO) that contained compound 9 (1 mM) or S-adenosylmethionine (SAM) (1 mM) in a 40 μL injection syringe was titrated into the Orf2*, Orf2*T or Dbv27 (0.1 mM) protein solution, which was placed in the sample cell of a 200 μL volume. Each titration consisted of 16 injections of a 2 μL4 s^−1 duration in an interval of 150 seconds. Data analysis was performed by software.

MRSA ATCC 700787 [6] = test: Minimal bactericidal concentration (MBC); format: cell-based, Staphylococcus aureus
Procedure: (§5) Minimal Bactericidal Concentration (MBC) Determination
(§6) The MBC test is an extension of the MIC examination. MBC was determined by performing subcultures on antibiotic-free agar from both the well where there was no visible growth at the MIC of a tested antibiotic and from the positive control well (with inoculum but without compounds). The plates were incubated at 37° C. for 18-24 hours. The MBC was taken as the lowest concentration of the test compound that results in more than 99.9% reduction of viable bacteria. If MBC was one or two dilutions above a given MIC value (MBC/MIC ratio was less than or equal to four), the antibiotic was considered bactericidal against the test organism.

AB ATCC 19606 = test: Minimal bactericidal concentration (MBC); format: cell-based, Acinetobacter baumannii
Procedure: as §5, §6

[7] = A. baumannii ATCC 19606, Table 3, first figure of cell
[8] = A. baumannii ATCC 19606, Table 3, second figure of cell

Molecule	MIC on AB (A. baumannii ATCC 19606 [1]) [µg/mL]	MIC (A. baumannii ATCC 19606 [1]; [7]) [µM]	MIC (A. baumannii ATCC 19606 [1]; [8]) [µg/mL]	cell membrane/cell wall morphology by TEM (A. baumannii ATCC 19606 [2])	MIC (MRSA ATCC 700698 hVISA) [µg/mL]	MIC (MRSA ATCC 700787 VRSA; MRSA ATCC 700787 VRSA) [µg/mL]	MIC (S. aureus ATCC 29213) [µg/mL]	MIC (E. faecalis ATCC 29302) [µg/mL]	MIC (VRE ATCC 700221 (vanA)) [µg/mL]	MIC (VRE ATCC 700425 (vanC)) [µg/mL]	MIC (VRE ATCC 700802 (vanB)) [µg/mL]	cytotoxicity to HEK293T cells (HEK293T cells)	pKd (Dbv27)	other results
colistin sulfate [reference compound]	1.98	1.56	1.98	intactness of cell membrane/cell wall was severely damaged	–	–	–	–	–	–	–	–	–	–
teicoplanin [Compound 1, reference compound]	–	100	187.97	–	4	8	0.25	0.125	>128	1	0.5	did not exhibit any observable toxicity	–	MIC (MRSA ATCC 43300): 0.25 µg/mL; MIC (MRSA ATCC 700789 VRSA): 4 µg/mL; MIC (MRSA ATCC BAA-38): 0.25 µg/mL; MIC (MRSA ATCC BAA-39): 0.5 µg/mL; MIC (MRSA ATCC BAA-44): 0.5 µg/mL; cell wall morphology by TEM (MRSA ATCC 700787 [3]): loose; bacterial load reduced by (MRSA ATCC 700787 [4]): 1.5 log CFUmL^−1; bacterial load (A. baumannii ATCC 19606 [5]; 30 mgkg^−1): about 4 log CFUmL^−1
C[S+](CC[C@H](N)C(=O)[O-])C[C@H]1O[C@@H](n2cnc3c(N)ncnc32)[C@H](O)[C@@H]1O (stereo partly shown) [SAM, S-adenosylmethionine, reference compound]	–	–	–	–	–	–	–	–	–	–	–	–	5.00	–
N[C@H]1[C@H](O[C@@H]2c3ccc(c(Cl)c3)Oc3cc4cc(c3O)Oc3ccc(cc3Cl)C[C@H]3NC(=O)[C@H](N)c5ccc(O)c(c5)Oc5cc(O)cc(c5)[C@H](NC3=O)C(=O)N[C@H]4C(=O)N[C@H]3C(=O)N[C@@H]2C(=O)N[C@H](C(=O)O)c2cc(O)cc(O)c2-c2cc3ccc2O)O[C@H](CO)[C@@H](O)[C@@H]1O [Compound 12, r6,Glm pseudoaglycone]	–	–	–	–	–	–	–	–	–	–	–	–	5.30	–
CN(C)[C@H]1C(=O)N[C@@H]2Cc3ccc(c(Cl)c3)Oc3cc4cc(c3O)Oc3ccc(cc3Cl)[C@@H](O[C@@H]3O[C@H](CO)[C@@H](O)[C@H](O)[C@H]3NC(=O)CCCCCCCNC(=N)N)[C@@H]3NC(=O)[C@H](NC(=O)[C@@H]4NC(=O)[C@@H](NC2=O)c2cc(O)cc(c2)Oc2cc1ccc2O)c1ccc(O)c(c1)-c1c(O)cc(O)cc1[C@@H](C(=O)O)NC3=O [Compound 24, r1,Me2-r6,C8-guanidino-Tei]	39.24 (≈ 25 µM)	25	39.24	intactness of cell membrane/cell wall was severely damaged	0.031 (≈ 0.0197 µM)	0.016 (≈ 0.0102 µM)	0.5 (≈ 0.318 µM)	0.5 (≈ 0.318 µM)	>16	8 (≈ 5.09 µM)	4 (≈ 2.55 µM)	did not exhibit any observable toxicity	–	MIC (MRSA ATCC 700787 VRSA; MRSA ATCC 700787, Table 4): 0.016 µg/mL (≈ 0.0102 µM); MIC (A. baumannii ATCC 19606 [1]; AB ATCC 19606, Table 4): 39.24 µg/mL; MBC (MRSA ATCC 700787 [6]): 0.031 µg/mL (≈ 0.0197 µM); MBC/MIC (MRSA ATCC 700787 [6]): 2; MBC (AB ATCC 19606): 39.24 µg/mL (≈ 25 µM); MBC/MIC (AB ATCC 19606): 1; bacterial load reduced by (A. baumannii ATCC 19606 [5]; 24 and kanamycin 30, amikacin 15 mgkg^−1): 1 log CFUmL^−1
